{"source": "patent US9689042B2", "about": "“Use of glycolytic pathways for inhibiting or measuring oncogenic signaling” (The Regents of the University of California, priority 2012, dated 2017)", "key": {"[1]": {"system": "T4-2 cells", "settings": "T4-2 cells, 3D lrECM", "experimental": "(§1) HMT-3522 cells were cultured on tissue culture plastic (2D) and in 3D lrECM gels with H14 medium, a 1:1 mix of DMEM/F12 (UCSF Cell Culture Facility) supplemented with 250 ng/ml insulin, 10 μg/ml transferrin, 2.6 ng/ml sodium selenite, 0.1 nM β-estradiol, 1.4 μM hydrocortisone and 5 μg/ml prolactin but no serum. S1 cells were additionally supplemented with 10 ng/ml EGF. MDA-MB-231 and HCC70 cells were cultured in DMEM and RPMI1640, respectively, and were supplemented with 10% fetal bovine serum (FBS).\n(§2) For 3D lrECM cultures, S1 and T4-2 cells were seeded at 840,000 and 600,000 cells per cm3 respectively in lrECM gel (Cultrex), overlaid with H14 medium. MDA-MB-231 and HCC70 cells were seeded at 625,000 cell per cm3 and overlaid with H14 medium supplemented with 1% FBS. Cells were used for each assay after 10 days, unless otherwise indicated.\nPieces of lrECM gel containing cell colonies were suspended in approximately the same volume of phosphate buffered saline (PBS) and directly spread on glass slides. After brief air-drying, colonies were fixed with 3.7% paraformaldehyde (PFA) in PBS at room temperature (RT) for 10 min, washed with PBS containing 0.1 mM glycine, and permeabilized with 1:1 methanol/acetone at −20° C. for 10 min. After blocking with IF buffer (0.2% Triton X-100, 0.1% BSA [radioimmunoassay grade], 0.05% Tween 20, 7.7 mM NaN3 in PBS) containing 10% goat serum and 1% goat F(ab′)2 anti-mouse immunoglobulin G (IgG; Caltag) at RT for 30 min, colonies were stained with anti-α6 integrin antibody (Chemicon International) at 4° C. overnight. Colonies were washed extensively with IF buffer, and stained with Alexa 568-labeled anti-rat IgG antibody at RT for 2 hr. Colonies were washed with IF buffer again, and nuclei were stained with DAPI at RT for 10 min. Slides were briefly washed with PBS and mounted with 50% glycerol in PBS.\nTo test whether increased glucose metabolism itself is required for oncogenic signaling events, we utilized 3D lrECM cultures of HMT-3522, a breast cancer progression series which includes non-malignant (S1) and malignant (T4-2) human breast epithelial cells from the same individual (Briand et al., 1987; Petersen et al., 1992; Rizki et al., 2008). Using these cells, we have described the involvement and reciprocity of multiple signaling pathways including EGFR, β1 integrin, PI3K-Akt and MEK-ERK in oncogenic events (Beliveau et al., 2010; Bissell et al., 2005). […] We thus used this “phenotypic reversion” of the cancer cells as an assay to examine how the signaling integration plan of the breast acini could involve glucose metabolism."}, "[2]": {"system": "S1 cells", "test": "3D lrECM culture of non-malignant S1 cells: acinar morphology and growth", "format": "cell-based, human", "settings": "2DG 4 mM, OGM 4 ng/ml", "experimental": "as §1, §2\nPieces of lrECM gel containing cell colonies were suspended in approximately the same volume of phosphate buffered saline (PBS) and directly spread on glass slides. After brief air-drying, colonies were fixed with 3.7% paraformaldehyde (PFA) in PBS at room temperature (RT) for 10 min, washed with PBS containing 0.1 mM glycine, and permeabilized with 1:1 methanol/acetone at −20° C. for 10 min. […]"}, "[3]": {"system": "EGFR, β1 integrin, Akt, MEK, GLUT3, glycolytic enzymes in T4-2 cells", "test": "Western blots of signaling intermediates, GLUT3 and metabolic enzymes in 3D lrECM cultures of T4-2 cells", "format": "cell-based, human", "settings": "T4-2 cells", "experimental": "Cell colonies were separated from lrECM gels by shaking in PBS containing 5 mM EDTA and the proteinase inhibitor cocktail set I (Calbiochem) on ice for 30 min. Cells were lysed in lysis buffer (1% NP-40, 1% deoxycholate, 2% SDS, 150 mM NaCl, 20 mM Tris-HCl [pH 7.4] plus 5 mM EDTA and protease inhibitor cocktail set I and phosphatase inhibitor cocktail set I [Calbiochem]) and sonicated three times for 30 sec each. Proteins were separated by SDS-PAGE, transferred to nitrocellulose membranes, and probed with antibodies against the following proteins: phosphorylated MEK, MEK, phosphorylated Akt, Akt, phosphorylated AMPK, AMPK, p70S6K, phosphorylated p70S6K, CHOP, EPAC1 (Cell Signaling), β1 integrin, EGFR, activated EGFR, HIF-1α, (Chemicon International), PFKP (Abgent), GAPDH, GLUT3 (GeneTex), LDHA, PDHE1α, DLAT, DLD, HIF-3α, Rap1, sAC, EPAC2, OGT, Lamin A/C (Santa Cruz Biotechnology), Aldolase (Polysciences), GFPT (ProteinTech Group), HIF-2α (Abcam), and HA-tag (Covance). After probing with HRP-conjugated secondary antibodies, blots were developed using SuperSignal West Femto chemiluminescence reagent (Pierce Biotechnology). Images were captured using Fluor Chem 8900 imager (Alpha Innotech)."}, "[4]": {"system": "T4-2 cells", "test": "Mitochondrial activity (MitoTracker oxidation) assay in 3D lrECM", "format": "cell-based, human", "experimental": "Cells suspended in 200 μl lrECM were seeded in 12 well glass-bottom plates (14 mm diameter; MatTek Corporation). Gels were overlaid with 500 μl H14 media and cultured for 10 days before each assay unless otherwise described.\nFor mitochondrial activity, we slightly modified the method described previously (Morici et al., 2007). Briefly, cells were incubated with 2 μM MitoTracker® Orange CM-H2 TMRos (Invitrogen) for 1 hour and fixed with PFA as above. Cells were counterstained with Hoechst 33342 (Invitrogen), which is known also to bind to DNA stoichiometrically, then MitoTracker and Hoechst staining were measured by taking z-section images from top to bottom of the gels using confocal microscopy.\nIn each assay, one well, containing only lrECM, was made for background measurements. Glucose uptake measured by 2DG uptake, lactate production and MitoTracker staining were normalized using total DNA levels, and presented relative to that of control (either S1 or non-treated T4-2 cells)."}, "[5]": {"system": "EGFR, ITGB1, GLUT3 mRNA", "test": "Quantitative PCR of EGFR, ITGB1 and GLUT3 mRNA in T4-2 cells", "format": "cell-based, human", "settings": "3D lrECM, normalized to 18S ribosomal RNA", "experimental": "First strand cDNA pools of S1, T4-2 and reverted T4-2 cells were obtained from total RNA of each sample by using SuperScript II (Invitrogen). For each sample, reverse transcription was carried out with random hexamer and with oligo dT primer following the manufacturer's instruction, and the two reactions were mixed in a ratio of 9:1. Expression levels of EGFR, ITGB1, GLUT3 and 18S ribosomal RNA (used as a control) were quantified in LightCycler system (Roche) using QuantiTect SYBR Green PCR Kits (QIAGEN) and the reverse transcription mixtures. Expression levels of EGFR, ITGB1, GLUT3 were normalized to that of 18S ribosomal RNA."}, "[6]": {"system": "S1 cells infected with GLUT3-HA-encoding lentivirus", "test": "3D lrECM culture of S1 cells overexpressing GLUT3", "format": "cell-based, human", "settings": "S1 cells over-expressing GLUT3-HA, 2DG 4 mM", "excerpt": "HIV 5′ LTR sequence in pTRIPZ vector (Open Biosystems) was removed by FspI-BbvCI digestion to replace with sequence containing chimeric CMV promoter-HIV 5′ LTR. CMV promoter was amplified by PCR from pcDNA3 (Invitrogen), fused to sequence containing partial HIV 5′ LTR sequence. The resulting intermediate vector, pTRIPZ-OY (optimal yield) was digested with BbvCI and NotI, to remove sequence containing TRE-minCMV promoter, turboRFP, UbqC promoter and rtTA3 (described in the manual provided by the manufacturer). The sequences containing EF1α/HTLV hybrid promoter and multiple cloning sites were removed from pCDH-EF1-MCS-T2A-Puro vector (System Bioscience) by digestion with the same restriction enzymes, and ligated into the digested pTRIPZ-OY vector, resulting in pLETIP vector. GLUT3 cDNA fused to C-terminal HA tag was amplified from total cDNA of T4-2 cells by PCR. The primers used were as follows: 5′-[…]-3′ (SEQ ID NO: 9) and 5′-[…] TTAGCA-3′ (SEQ ID NO: 10). The amplified cDNA was digested with BamHI and XmaI, and ligated into the same sites of pBluescriptII SK(−) vector for validating the sequence. GLUT3-HA cDNA was then digested with BamHI and SmaI, and ligated into pLETIP vector digested with NotI, blunted with T4 polymerase and further digested with BamHI, resulting in pLETIP GLUT3-HA vector. […]"}, "[7]": {"settings": "same inhibitor concentrations as E1"}}, "note": "Entries after “also recorded” stand apart in the source; their conditions may differ."}
{"smiles": "O=CC[C@@H](O)[C@H](O)[C@H](O)CO", "note": "[2DG, 2-deoxy-D-glucose]", "values": [{"measurement": "phenotypic reversion of the malignant phenotype", "setting": "[1]; 2DG 4 mM, IA 20 μM, OX 50 mM, Azs 20 μM, DON 20 μM, BADGP 5 mM, TM 10 ng/ml, OGM 4 ng/ml, Rapa 0.01-1.0 μM", "result": "induced phenotypic reversion; also recorded: do induce phenotypic reversion"}, {"measurement": "basal polarity / organized acinar structures", "setting": "[1]; [7]", "result": "re-establishment of basally polarized acini"}, {"measurement": "growth / proliferation (cell numbers at the colony mid-section, EdU incorporation)", "setting": "[1]; [7]", "result": "growth arrest"}, {"measurement": "acinar morphology, basal polarity and growth rate of non-malignant cells", "setting": "[2]", "result": "altered neither the acinar morphology nor the growth rate"}, {"measurement": "expression of ER stress marker CHOP", "setting": "[3]; 3D cultures, 2DG 4 mM", "result": "unchanged"}, {"measurement": "phosphorylation of AMPK or S6K", "setting": "[3]; 3D cultures, 2DG 4 mM", "result": "did not affect"}, {"measurement": "expression of GLUT3 and the glycolytic enzymes", "setting": "[3]; 3D lrECM, Western blot", "result": "dramatic down-regulation"}, {"measurement": "expression of PDC components", "setting": "[3]; 3D lrECM, Western blot", "result": "elevated"}, {"measurement": "levels and/or activities of EGFR, β1 integrin, Akt and MEK (oncogenic signaling)", "setting": "[3]; 3D lrECM, Western blot", "result": "decrease"}, {"measurement": "mitochondrial activity (oxidation)", "setting": "[4]", "result": "essentially unaffected"}, {"measurement": "mRNA expression of EGFR, β1 integrin and GLUT3", "setting": "[5]", "result": "effectively suppressed"}, {"measurement": "reversal of the disorganized phenotype caused by GLUT3 over-expression", "setting": "[6]", "result": "could be reversed"}]}
